14 compounds from US20250228882A1, “ORALLY-BIOAVAILABLE NUCLEOSIDE ANALOGS” (Venatorx Pharmaceuticals, Inc., priority 2022, published 2025) can be followed below.

The data set can be described thus: Bidirectional Caco-2 permeability assay. As to conditions: human. The format is in vitro ADME. How it is done: The bidirectional permeability of compounds across the Caco-2 cell monolayer was assessed. The Caco-2 model is a widely used in vitro model for small intestinal absorption and potential for efflux. Cell culture. Caco-2 cells were grown in DMEM supplemented with 10% fetal bovine serum (FBS), 1% Penicillin-Streptomycin and 1% MEMNEAA. The cells were incubated at 37° C., 5% CO2/95% air and saturated humidity. After reaching 80-90% confluency, the cells were gently detached with trypsin. Cells at passage 39 were seeded on the 24-well BD insert system at the density of 8×10^4 cells/cm^2 and cultured for 19 days with medium changed every 2-3 days. Measure the transepithelial electrical resistance (TEER) value of each well. The wells can be used only when their TEER values are greater than 600 Ohms/cm^2.
Transport assay. After removing the cell culture medium from the 24-well insert plate, the cells were rinsed with warm transport buffer. Appropriate dosing and receiving solutions were applied to the donor and receiver chambers to initiate the transport assay in apical to basolateral (A to B) or basolateral to apical (B to A) directions (500 and 1300 μL for apical and basolateral wells, respectively). Duplicate wells in each direction were used for the test compound and control compound. The plate was incubated in CO2 incubator at 37° C., with 5% CO2/95% air and saturated humidity without shaking. The sample after 10-minute incubation was used as the To sample, and the sample after 90-minute incubation was used as the T90 sample. To and T90 samples were collected from the donor and receiver side of each well at the designed timepoint, mixed with the transport buffer and acetonitrile/MeOH (1:1, v/v) and the internal standard for LC/MS/MS analysis. All samples were vortexed and centrifuged at 4000 rpm at 4° C. for 15 minutes, diluted with pure water and stored at 4° C. before bioanalysis by LC/MS/MS.
Sample analysis. The concentrations of test compounds and control compounds in Caco-2 cells were quantitatively determined by LC/MS/MS method after protein precipitation.
Calculations. The apparent permeability (Papp, cm/s), efflux ratio (ER) and recovery parameters were calculated for Caco-2 drug transport assay using the following equations: […]
where VR is the solution volume in the receiver chamber (0.4 mL on the apical side, 1.2 mL on the basolateral side); Area is the surface area for the insert membrane, i.e., 0.3 cm^2 for the area of the monolayer; Time is incubation time, expressed in seconds, i. e., 5400 s (90 min) for the current experiment; Co is the initial concentration of test compound or peak area ratio of control compounds in the donor chamber (M); VD is the volume in the donor chambers (0.4 mL on the apical side, 1.2 mL on the basolateral side); CD and CR are the final concentrations of test compounds or peak area ratio of control compounds in donor and receiver chambers, respectively.
Compounds with Papp<1.0 are classified as low permeability, Papp between 1-10 are classified as medium permeability, and Papp>10 are classified as high permeability. An efflux ratio (ER)>2 indicates the compounds are potential substrates for intestinal cell efflux transporters.
In general terms: Caco-2 cells form a polarised layer with tight junctions and transporters.

Setting [1] is: Caco-2 monolayer, apical to basolateral, 90-minute incubation, read-out: Papp, A-B.
[2] abbreviates: Caco-2 monolayer, basolateral to apical, 90-minute incubation, read-out: Papp, B-A.
Setting [3] is: Caco-2 monolayer, ER>2 indicates potential efflux substrate, read-out: ER (efflux ratio).

Like-named read-outs stand apart in the source and are kept apart here.

One may read the Papp A→B as how fast a substance crosses the layer from the apical side. What is called Papp B→A is how fast a substance crosses the layer from the basolateral side.

As for `CCOC(C)(C)C(=O)Nc1ncnn2c([C@]3(C#N)O[C@H](COC(=O)CC4CCCCC4)[C@@H](OC(=O)[C@@H](N)C(C)(C)C)[C@H]3O)ccc12` [Compound 7, (2R,3S,4R,5R)-5-cyano-2-((2-cyclohexylacetoxy)methyl)-5-(4-(2-ethoxy-2-methylpropanamido)pyrrolo[2,1-f][1,2,4]triazin-7-yl)-4-hydroxytetrahydrofuran-3-yl (S)-2-amino-3,3-dimethylbutanoate], where the note is “Caco-2”, the apparent permeability from apical to basolateral (Papp A→B) at 90 min was found to be 7.82 ×10⁻⁶ cm/s, the apparent permeability from basolateral to apical (Papp B→A) at 90 min was found to be 8.41 ×10⁻⁶ cm/s and the efflux ratio at 90 min turned out to be 1.07.

`CCCCOC(C)(C)C(=O)Nc1ncnn2c([C@]3(C#N)O[C@H](COC(=O)CC4CCCC4)[C@@H](OC(=O)[C@@H](N)C(C)(C)C)[C@H]3O)ccc12` [Compound 71, (2R,3S,4R,5R)-5-(4-(2-butoxy-2-methylpropanamido)pyrrolo[2,1-f][1,2,4]triazin-7-yl)-5-cyano-2-((2-cyclopentylacetoxy)methyl)-4-hydroxytetrahydrofuran-3-yl(S)-2-amino-3,3-dimethylbutanoate]: under “Caco-2”, the Papp A→B at 90 min was 0.67 ×10⁻⁶ cm/s, the Papp B→A at 90 min stood at 8.18 ×10⁻⁶ cm/s and the efflux ratio at 90 min came out at 12.1.

With `COC(C)(C)C(=O)Nc1ncnn2c([C@]3(C#N)O[C@H](COC(=O)Cc4ccccc4)[C@@H](OC(=O)[C@@H](N)C(C)(C)C)[C@H]3O)ccc12` [Compound 5, (2R,3S,4R,5R)-5-cyano-4-hydroxy-5-(4-(2-methoxy-2-methylpropanamido)pyrrolo[2,1-f][1,2,4]triazin-7-yl)-2-((2-phenylacetoxy)methyl)tetrahydrofuran-3-yl (S)-2-amino-3,3-dimethylbutanoate], under setting [1], the apparent permeability from apical to basolateral (Papp A→B) at 90 min stood at 17.7 ×10⁻⁶ cm/s. Besides, the Papp B→A at 90 min under setting [2] stood at 16.5 ×10⁻⁶ cm/s. Moreover, the efflux ratio at 90 min under setting [3] amounted to 0.93.

In the case of `CCCCOC(=O)Nc1ncnn2c([C@]3(C#N)O[C@H](COC(=O)CC4CCCCCC4)[C@@H](OC(=O)[C@@H](N)C(C)(C)C)[C@H]3O)ccc12` [Compound 65, (2R,3S,4R,5R)-5-(4-((butoxycarbonyl)amino)pyrrolo[2,1-f][1,2,4]triazin-7-yl)-5-cyano-2-((2-cycloheptylacetoxy)methyl)-4-hydroxytetrahydrofuran-3-yl (S)-2-amino-3,3-dimethylbutanoate], under “Caco-2”, the Papp A→B at 90 min is 0.79 ×10⁻⁶ cm/s, the Papp B→A at 90 min stood at 0.5 ×10⁻⁶ cm/s and the efflux ratio at 90 min came out at 0.62.

For the compound `CC(C)(C)[C@H](N)C(=O)OC[C@H]1O[C@@](C#N)(c2ccc3c(NC(=O)CC4CCCCC4)ncnn23)[C@H](O)[C@@H]1O` [Compound 39, ((2R,3S,4R,5R)-5-cyano-5-(4-(2-cyclohexylacetamido)pyrrolo[2,1-f][1,2,4]triazin-7-yl)-3,4-dihydroxytetrahydrofuran-2-yl)methyl (S)-2-amino-3,3-dimethylbutanoate], for the setting “Caco-2”, the Papp A→B at 90 min turned out to be 0.72 ×10⁻⁶ cm/s, the Papp B→A at 90 min was found to be 16.9 ×10⁻⁶ cm/s and the efflux ratio at 90 min turned out to be 23.4.

Regarding `CC(C)[C@H](C)C(=O)Nc1ncnn2c([C@]3(C#N)O[C@H](COC(=O)CC4CCCCC4)[C@@H](OC(=O)[C@@H](N)C(C)(C)C)[C@H]3O)ccc12` [Compound 15, (2R,3S,4R,5R)-5-cyano-2-((2-cyclohexylacetoxy)methyl)-5-(4-((S)-2,3-dimethylbutanamido)pyrrolo[2,1-f][1,2,4]triazin-7-yl)-4-hydroxytetrahydrofuran-3-yl (S)-2-amino-3,3-dimethylbutanoate], where the note is “Caco-2”, the apparent permeability from apical to basolateral (Papp A→B) at 90 min is 1.93 ×10⁻⁶ cm/s, the basolateral-to-apical permeability (Papp B→A) at 90 min was 1.76 ×10⁻⁶ cm/s and the efflux ratio at 90 min was found to be 0.91.

As to `CCC(CC)C(=O)Nc1ncnn2c([C@]3(C#N)O[C@H](COC(=O)CC4CCC4)[C@@H](OC(=O)[C@@H](N)C(C)(C)C)[C@H]3O)ccc12` [Compound 50, (2R,3S,4R,5R)-5-cyano-2-((2-cyclobutylacetoxy)methyl)-5-(4-(2-ethylbutanamido)pyrrolo[2,1-f][1,2,4]triazin-7-yl)-4-hydroxytetrahydrofuran-3-yl (S)-2-amino-3,3-dimethylbutanoate], for the setting “Caco-2”, the Papp A→B at 90 min turned out to be 8.66 ×10⁻⁶ cm/s, the Papp B→A at 90 min is 8.25 ×10⁻⁶ cm/s and the efflux ratio at 90 min was 0.95.

As for `COC(C)(C)C(=O)Nc1ncnn2c([C@]3(C#N)O[C@H](COC(=O)CC4CCCCC4)[C@@H](OC(=O)[C@H](N)C(C)(C)C)[C@H]3O)ccc12` [Compound 68, (2R,3S,4R,5R)-5-cyano-2-((2-cyclohexylacetoxy)methyl)-4-hydroxy-5-(4-(2-methoxy-2-methylpropanamido)pyrrolo[2,1-f][1,2,4]triazin-7-yl)tetrahydrofuran-3-yl (R)-2-amino-3,3-dimethylbutanoate], under “Caco-2”, the Papp A→B at 90 min was determined as 3.22 ×10⁻⁶ cm/s, the basolateral-to-apical permeability (Papp B→A) at 90 min was determined as 4.04 ×10⁻⁶ cm/s and the efflux ratio at 90 min amounted to 1.25.

Take `COC(C)(C)C(=O)Nc1ncnn2c([C@]3(C#N)O[C@H](COC(=O)CC4CCCCCC4)[C@@H](OC(=O)[C@@H](N)C(C)(C)C)[C@H]3O)ccc12` [Compound 63, (2R,3S,4R,5R)-5-cyano-2-((2-cycloheptylacetoxy)methyl)-4-hydroxy-5-(4-(2-methoxy-2-methylpropanamido)pyrrolo[2,1-f][1,2,4]triazin-7-yl)tetrahydrofuran-3-yl (S)-2-amino-3,3-dimethylbutanoate]: under “Caco-2”, the Papp A→B at 90 min was 4.01 ×10⁻⁶ cm/s, the Papp B→A at 90 min was 2.79 ×10⁻⁶ cm/s and the efflux ratio at 90 min amounted to 0.7.

For the compound `CC(C)[C@H](C)C(=O)Nc1ncnn2c([C@]3(C#N)O[C@H](COC(=O)Cc4ccccc4)[C@@H](OC(=O)[C@@H](N)C(C)(C)C)[C@H]3O)ccc12` [Compound 22, (2R,3S,4R,5R)-5-cyano-5-(4-((S)-2,3-dimethylbutanamido)pyrrolo[2,1-f][1,2,4]triazin-7-yl)-4-hydroxy-2-((2-phenylacetoxy)methyl)tetrahydrofuran-3-yl (S)-2-amino-3,3-dimethylbutanoate], under setting [1], the Papp A→B at 90 min turned out to be 2.79 ×10⁻⁶ cm/s. Moreover, the Papp B→A at 90 min under setting [2] was determined as 6.1 ×10⁻⁶ cm/s. Moreover, under setting [3], the efflux ratio at 90 min was determined as 2.19.

`CCC(CC)C(=O)Nc1ncnn2c([C@]3(C#N)O[C@H](COC(=O)CC4CCCCC4)[C@@H](OC(=O)[C@H](N)C(C)(C)C)[C@H]3O)ccc12` [Compound 69, (2R,3S,4R,5R)-5-cyano-2-((2-cyclohexylacetoxy)methyl)-5-(4-(2-ethylbutanamido)pyrrolo[2,1-f][1,2,4]triazin-7-yl)-4-hydroxytetrahydrofuran-3-yl (R)-2-amino-3,3-dimethylbutanoate]: where the note is “Caco-2”, the Papp A→B at 90 min was found to be 3.19 ×10⁻⁶ cm/s, the basolateral-to-apical permeability (Papp B→A) at 90 min came to 4.38 ×10⁻⁶ cm/s and the efflux ratio at 90 min amounted to 1.37.

Take `CCC(CC)C(=O)Nc1ncnn2c([C@]3(C#N)O[C@H](COC(=O)CC4CCCCCC4)[C@@H](OC(=O)[C@@H](N)C(C)(C)C)[C@H]3O)ccc12` [Compound 62, (2R,3S,4R,5R)-5-cyano-2-((2-cycloheptylacetoxy)methyl)-5-(4-(2-ethylbutanamido)pyrrolo[2,1-f][1,2,4]triazin-7-yl)-4-hydroxytetrahydrofuran-3-yl (S)-2-amino-3,3-dimethylbutanoate]: where the note is “Caco-2”, the apparent permeability from apical to basolateral (Papp A→B) at 90 min stood at 1.4 ×10⁻⁶ cm/s, the Papp B→A at 90 min is 0.89 ×10⁻⁶ cm/s and the efflux ratio at 90 min came to 0.64.

Take `CCCCC(=O)Nc1ncnn2c([C@]3(C#N)O[C@H](COC(=O)CC4CCCC4)[C@@H](OC(=O)[C@@H](N)C(C)(C)C)[C@H]3O)ccc12` [Compound 54, (2R,3S,4R,5R)-5-cyano-2-((2-cyclopentylacetoxy)methyl)-4-hydroxy-5-(4-pentanamidopyrrolo[2,1-f][1,2,4]triazin-7-yl)tetrahydrofuran-3-yl (S)-2-amino-3,3-dimethylbutanoate]: where the note is “Caco-2”, the Papp A→B at 90 min worked out at 3.41 ×10⁻⁶ cm/s, the basolateral-to-apical permeability (Papp B→A) at 90 min was found to be 5.47 ×10⁻⁶ cm/s and the efflux ratio at 90 min is 1.6.

As to `CCC(CC)C(=O)Nc1ncnn2c([C@]3(C#N)O[C@H](COC(=O)CC4CCCCCC4)[C@@H](OC(=O)[C@H](N)C(C)(C)C)[C@H]3O)ccc12` [Compound 77, (2R,3S,4R,5R)-5-cyano-2-((2-cycloheptylacetoxy)methyl)-5-(4-(2-ethylbutanamido)pyrrolo[2,1-f][1,2,4]triazin-7-yl)-4-hydroxytetrahydrofuran-3-yl (R)-2-amino-3,3-dimethylbutanoate], where the note is “Caco-2”, the Papp A→B at 90 min is 1 ×10⁻⁶ cm/s, the basolateral-to-apical permeability (Papp B→A) at 90 min was determined as 1.6 ×10⁻⁶ cm/s and the efflux ratio at 90 min was determined as 1.7.
